Test results taken from ChEMBL document CHEMBL1201862, “PubChem BioAssay data set” (2004).
The source made the active and inactive calls.

Columns and labels:
[1] = non-specific 3'UTR reporter inhibition in Clone20-Shn3RL – cell-based, Renilla luciferase, cherry-picked, counter-screen for Shn3 inhibitor project, dose response (AID 624133); format: functional
[2] = reduction of Shn3 3'UTR-driven luciferase in osteoblasts – cell-based, Clone20 osteoblasts, firefly luciferase, cherry-picked, dose response (AID 624132); format: functional;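 further: firefly luciferase luminescence from reporter carrying the Shn3 3'UTR in osteoblasts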
[3] = molecular target: T1, Calpain-2 catalytic subunit (Sus scrofa, UniProt P43367); test: m-calpain protease blockers, concentration series – biochemical, fluorogenic peptide substrate, dose response (AID 1420); format: functional
T1 sequence (P43367 whole entry): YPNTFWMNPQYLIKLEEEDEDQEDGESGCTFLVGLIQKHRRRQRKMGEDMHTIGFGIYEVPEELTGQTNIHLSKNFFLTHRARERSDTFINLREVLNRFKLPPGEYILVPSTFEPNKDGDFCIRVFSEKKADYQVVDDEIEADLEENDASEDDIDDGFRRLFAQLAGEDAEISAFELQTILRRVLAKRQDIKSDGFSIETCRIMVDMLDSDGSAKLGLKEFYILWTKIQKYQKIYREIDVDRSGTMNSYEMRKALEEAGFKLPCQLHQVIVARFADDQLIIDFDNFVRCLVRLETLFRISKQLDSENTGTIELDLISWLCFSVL

[4] = molecular target: T2, Zinc finger protein mex-5 (Caenorhabditis elegans, UniProt Q9XUB2); test: potency of MEX-5 RNA-binding blockers – biochemical, C. elegans, fluorescence polarization, dose response (AID 1960)
T2 sequence (Q9XUB2 whole entry): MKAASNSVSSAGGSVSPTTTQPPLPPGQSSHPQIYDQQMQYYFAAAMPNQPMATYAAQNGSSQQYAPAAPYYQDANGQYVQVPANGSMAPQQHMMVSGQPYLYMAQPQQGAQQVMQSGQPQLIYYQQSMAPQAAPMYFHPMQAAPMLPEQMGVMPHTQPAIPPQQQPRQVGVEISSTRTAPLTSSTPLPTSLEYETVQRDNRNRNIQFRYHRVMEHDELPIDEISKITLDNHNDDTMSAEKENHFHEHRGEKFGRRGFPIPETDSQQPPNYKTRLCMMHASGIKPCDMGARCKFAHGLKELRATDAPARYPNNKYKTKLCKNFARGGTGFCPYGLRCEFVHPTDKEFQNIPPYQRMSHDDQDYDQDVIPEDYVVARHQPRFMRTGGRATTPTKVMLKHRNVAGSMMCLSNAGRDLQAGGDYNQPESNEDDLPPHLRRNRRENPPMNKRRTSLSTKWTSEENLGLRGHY

[5] = molecular target: T3, RNA-binding protein pos-1 (Caenorhabditis elegans, UniProt G5EF15); test: disruptors of C. elegans POS-1 RNA interaction – biochemical, fluorescence polarization, dose response (AID 1964);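 further: purified POS-1 fused to maltose binding protein made in E. coli; potency of compounds blocking POS-1 binding to fluorescent RNA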
T3 sequence (G5EF15 whole entry): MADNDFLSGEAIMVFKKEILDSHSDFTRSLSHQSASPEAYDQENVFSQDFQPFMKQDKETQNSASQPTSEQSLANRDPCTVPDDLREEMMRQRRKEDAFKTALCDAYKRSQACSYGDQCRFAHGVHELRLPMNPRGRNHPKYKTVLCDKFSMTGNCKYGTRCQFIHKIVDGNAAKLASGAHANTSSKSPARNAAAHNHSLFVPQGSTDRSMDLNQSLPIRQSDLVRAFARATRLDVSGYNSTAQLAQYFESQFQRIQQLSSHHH

H9c2 = test: cells; format: functional, cell-based; details: Rattus norvegicus, H9c2, Myocardium;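 further: confirmatory concentration-response retest of ultra-high-throughput screening hits for modulation of myocardial damage; cell death induced by hydrogen peroxide oxidative stress; compound pretreatment for 60 min then peroxide exposure for 2 h; potency is for protecting the cells against peroxide damage rather than for killing them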
Fatty acid synthase [6] = molecular target: T4, Fatty acid synthase (Homo sapiens, UniProt P49327); test: inhibition of human FAS-TE enzyme activity – biochemical, kinetic fluorescence intensity, dose response (AID 624326); format: functional;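 further: rate of fluorescence rise from hydrolysis of a fluorogenic O-methyl fluorescein ester substrate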
Fatty acid synthase [7] = molecular target: T4, Fatty acid synthase; test: inhibition of human FAS-TE enzyme activity – biochemical, endpoint fluorescence intensity, uHTS hits, dose response (AID 624327); format: functional;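 further: fluorescence from hydrolysis of an O-methyl fluorescein acyl ester substrate by the enzyme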
[8] = viability of PTEN-deleted HCT116 cells – cell-based, HCT116 PTEN knockout, dose response (AID 1047); format: functional;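 further: HCT116 colon tumor cells with PTEN knocked out; cells exposed to compound for 60 hours before readout; potency for loss of cell viability measured by luminescence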
[9] = alpha-synuclein stem-loop luciferase translation blockers – H4 neuroglioma cells, luminescence, confirmation (AID 1988); format: functional, cell-based
[10] = Luminescence Cell-Based Dose Response HTS to Identify Inhibitors of 5'UTR Stem-Loop Driven Prion Protein mRNA Translation in H4 Neuroglioblastoma Cells. [Related pubchem assays: 1827 (Project Summary), 1813 (Primary HTS)]; format: functional
[11] = luciferase reporter signal suppression in cells – H4 neuroglioma cells, luminescence, dose response (AID 1990); format: functional, cell-based
[12] = blockers of HIV-1 envelope-mediated cell-cell fusion – cherry-pick, dose response (AID 652057); format: functional, cell-based
[13] = HIV-1 AD8 envelope cell-cell fusion blockers – cherry-pick, dose response (AID 652062); format: functional, cell-based;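 further: luciferase signal from cell-cell fusion driven by HIV-1 clade B AD8 Env; potency is for inhibitors of fusion seen as a drop in luminescence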
[14] = molecular target: FAD-linked sulfhydryl oxidase ALR (Homo sapiens, UniProt P55789); test: ALR-catalysed DTT oxidation blockers – biochemical, H2O2 detection, luminescence, cherry-pick, dose response (AID 493248)
Sequence of FAD-linked sulfhydryl oxidase ALR (P55789 whole entry): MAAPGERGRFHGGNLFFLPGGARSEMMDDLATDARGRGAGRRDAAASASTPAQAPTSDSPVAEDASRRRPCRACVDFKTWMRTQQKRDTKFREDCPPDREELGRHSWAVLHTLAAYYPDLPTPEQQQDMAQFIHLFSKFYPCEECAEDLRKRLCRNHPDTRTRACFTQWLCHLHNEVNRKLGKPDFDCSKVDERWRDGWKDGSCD

T4 sequence (P49327 whole entry): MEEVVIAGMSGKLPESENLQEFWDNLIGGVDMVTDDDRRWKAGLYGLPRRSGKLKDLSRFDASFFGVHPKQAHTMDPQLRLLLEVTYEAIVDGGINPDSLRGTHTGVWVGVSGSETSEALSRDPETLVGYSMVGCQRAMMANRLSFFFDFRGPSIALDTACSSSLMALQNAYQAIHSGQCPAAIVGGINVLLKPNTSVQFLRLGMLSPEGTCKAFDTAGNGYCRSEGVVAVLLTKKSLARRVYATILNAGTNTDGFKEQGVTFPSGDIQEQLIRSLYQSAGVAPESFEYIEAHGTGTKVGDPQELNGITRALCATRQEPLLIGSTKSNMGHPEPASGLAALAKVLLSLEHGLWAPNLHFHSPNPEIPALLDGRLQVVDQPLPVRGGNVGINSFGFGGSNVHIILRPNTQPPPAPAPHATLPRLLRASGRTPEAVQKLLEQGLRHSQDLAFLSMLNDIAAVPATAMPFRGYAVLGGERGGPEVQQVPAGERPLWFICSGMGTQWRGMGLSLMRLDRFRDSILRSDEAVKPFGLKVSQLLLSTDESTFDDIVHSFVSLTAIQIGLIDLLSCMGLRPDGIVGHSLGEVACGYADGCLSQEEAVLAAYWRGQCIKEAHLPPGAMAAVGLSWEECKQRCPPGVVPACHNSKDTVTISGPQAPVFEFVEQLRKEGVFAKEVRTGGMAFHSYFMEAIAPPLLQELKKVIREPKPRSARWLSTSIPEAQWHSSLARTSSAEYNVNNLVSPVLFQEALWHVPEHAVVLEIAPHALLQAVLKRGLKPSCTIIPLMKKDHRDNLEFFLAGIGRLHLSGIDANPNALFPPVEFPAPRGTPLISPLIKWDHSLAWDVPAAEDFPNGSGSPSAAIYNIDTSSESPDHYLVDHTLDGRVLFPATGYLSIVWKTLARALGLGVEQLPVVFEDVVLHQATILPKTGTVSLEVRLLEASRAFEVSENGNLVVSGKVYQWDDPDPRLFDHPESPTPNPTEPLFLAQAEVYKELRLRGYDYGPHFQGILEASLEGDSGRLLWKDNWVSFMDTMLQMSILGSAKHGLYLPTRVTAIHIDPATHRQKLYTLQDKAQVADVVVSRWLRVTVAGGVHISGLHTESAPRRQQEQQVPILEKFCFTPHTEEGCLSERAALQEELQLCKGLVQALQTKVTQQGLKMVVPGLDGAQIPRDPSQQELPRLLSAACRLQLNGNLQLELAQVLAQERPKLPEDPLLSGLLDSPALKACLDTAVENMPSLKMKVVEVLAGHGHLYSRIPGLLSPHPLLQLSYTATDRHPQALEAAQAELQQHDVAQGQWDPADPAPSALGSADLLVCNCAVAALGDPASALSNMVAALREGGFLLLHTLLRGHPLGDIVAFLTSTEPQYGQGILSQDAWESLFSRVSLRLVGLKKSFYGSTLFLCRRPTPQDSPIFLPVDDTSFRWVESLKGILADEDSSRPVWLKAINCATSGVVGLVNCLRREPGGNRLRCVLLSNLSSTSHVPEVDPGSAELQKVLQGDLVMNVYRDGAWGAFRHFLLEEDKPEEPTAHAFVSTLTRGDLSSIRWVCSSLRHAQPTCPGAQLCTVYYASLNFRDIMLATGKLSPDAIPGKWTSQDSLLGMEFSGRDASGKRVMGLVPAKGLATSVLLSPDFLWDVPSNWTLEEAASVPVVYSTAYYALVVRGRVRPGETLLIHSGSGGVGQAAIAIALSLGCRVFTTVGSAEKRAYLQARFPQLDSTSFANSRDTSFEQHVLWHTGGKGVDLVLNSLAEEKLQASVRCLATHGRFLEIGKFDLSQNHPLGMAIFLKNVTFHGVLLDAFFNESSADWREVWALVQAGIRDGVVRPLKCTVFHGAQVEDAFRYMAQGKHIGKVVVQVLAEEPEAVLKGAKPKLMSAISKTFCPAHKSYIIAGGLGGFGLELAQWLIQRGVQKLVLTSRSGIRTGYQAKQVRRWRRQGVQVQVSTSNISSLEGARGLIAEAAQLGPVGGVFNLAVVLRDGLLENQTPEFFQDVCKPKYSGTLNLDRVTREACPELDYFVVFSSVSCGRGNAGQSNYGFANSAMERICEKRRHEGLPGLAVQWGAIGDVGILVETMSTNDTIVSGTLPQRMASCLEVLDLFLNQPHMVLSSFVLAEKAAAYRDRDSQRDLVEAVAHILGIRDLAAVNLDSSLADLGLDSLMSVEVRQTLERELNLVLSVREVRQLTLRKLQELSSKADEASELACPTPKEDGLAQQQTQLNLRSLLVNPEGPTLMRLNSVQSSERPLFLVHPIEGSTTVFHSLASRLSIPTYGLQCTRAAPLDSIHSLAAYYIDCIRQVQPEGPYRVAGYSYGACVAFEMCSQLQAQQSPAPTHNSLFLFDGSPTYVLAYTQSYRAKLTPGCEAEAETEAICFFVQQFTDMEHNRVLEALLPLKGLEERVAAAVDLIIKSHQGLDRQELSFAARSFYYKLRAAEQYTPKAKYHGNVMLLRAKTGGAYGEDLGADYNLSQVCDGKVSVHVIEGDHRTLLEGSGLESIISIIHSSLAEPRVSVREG

CCCc1nc([N+](=O)[O-])c(S(=O)(=O)c2ccccc2)n1CC(C)C
AC50 [1]: 25.9 µM (active)
AC50 [2]: 7.39 µM (active)

Cn1nc(CC(=O)N2CCN(c3ccccc3)CC2)c2ccccc2c1=O
IC50 [3]: 13.1 µM (not active)

COc1cc(C2C(C#N)=C(N)OC3=C2C(=O)CC(C)(C)C3)cc([N+](=O)[O-])c1O (configuration not stated)
EC50 [4]: > 300 µM (not active)
EC50 [5]: > 300 µM (not active)

CC(C)OC(=O)CSc1nnc(COc2ccc([N+](=O)[O-])cc2)n1C
IC50 [3]: 9.11 µM (not active)

COc1cc(OC)cc(C(=O)Nc2ccc3c(c2)COC3=O)c1
IC50 [3]: 5.36 µM (not active)

COc1ccc(CCn2c(=O)c3cccnc3n(Cc3ccc([N+](=O)[O-])cc3)c2=O)cc1OC
IC50 (H9c2): > 79 µM (inactive)

CC(C)c1ccc(Nc2c([N+](=O)[O-])c(=O)n(C)c3ccccc23)cc1
IC50 [3]: 3.37 µM (not active)

C[C@H](NC(=O)C1CCN(S(=O)(=O)c2ccccc2)CC1)C(=O)NCc1ccc(Cl)c(Cl)c1
IC50 (Fatty acid synthase [6]): 14.5 µM (active)
IC50 (Fatty acid synthase [7]): 12.4 µM (active)

Cc1c(Cl)c(=O)oc2cc(OCC(=O)N3CCCC(C)C3)ccc12 (configuration not stated)
IC50 (Fatty acid synthase [6]): 10.3 µM (active)
IC50 (Fatty acid synthase [7]): 6.55 µM (active)

CCCn1c(SCC(=O)c2ccc3c(c2)NC(=O)CO3)nc2ccccc21
EC50 [8]: 22.4 µM (active)

Cc1cc(C=C2C(=O)c3ccccc3C2=O)c(C)n1-c1ccc(C(=O)O)cc1
EC50 [4]: > 300 µM (not active)
EC50 [5]: > 300 µM (not active)

COc1ccc(C2=NOC(Cn3c(Cc4ccc(Cl)cc4)nc4c3c(=O)n(C)c(=O)n4C)C2)cc1 (configuration not stated)
EC50 [9]: > 120 µM (not active)
EC50 [10]: > 120 µM (not active)
EC50 [11]: > 120 µM (not active)

COc1ccc(OC)c(C2=C/C(=C/c3ccccn3)C(=O)O2)c1
EC50 [4]: 45.8 µM (active)
EC50 [5]: > 300 µM (not active)

Cc1ccc(S(=O)(=O)N(C)C[C@H]2Oc3ncc(Br)cc3C(=O)N([C@@H](C)CO)C[C@@H]2C)cc1
AC50 [12]: 4.57 µM (active)
AC50 [13]: 5.51 µM (active)

CCc1cccc(CC)c1NC(=O)c1cc(CN2C(=O)c3ccccc3C2=O)ccc1OC
IC50 [3]: 3.81 µM (not active)

CC(=O)Nc1nc2ccccc2n1Cc1ccccc1C
EC50 [9]: 11.5 µM (active)
EC50 [10]: 14.2 µM (active)
EC50 [11]: 14.5 µM (active)

COc1ccc(N2CCN(C(=O)CCn3nnc4ccccc43)CC2)cc1
AC50 [14]: 6.11 µM (active)

COc1ccc(C(=O)NNC2=Nc3cccc4cccc2c34)cc1
EC50 [9]: > 120 µM (not active)
EC50 [10]: 16.6 µM (active)
EC50 [11]: > 120 µM (not active)

CSCCC(NS(=O)(=O)c1ccccc1)C(=O)OCc1cc(=O)oc2cc(O)ccc12 (configuration not stated)
IC50 (H9c2): > 79 µM (inactive)
